The structures appear in SMILES notation.

The values that follow come from patent US20170087109A1, “COMPOSITIONS AND METHODS FOR TREATING BLACKHEADS” (Johnson & Johnson Consumer Inc., priority 2015, published 2017).

The nature of this assay: Blackhead dissolution test (extracted blackheads submerged in test material, graded by expert inspection). The following applies: blackhead submerged in approximately 100 microliters test material for 24 hours at room temperature, no agitation; 1 = not dissolved, 7 = completely dissolved. More on the design: species or system human. The protocol:
A series of compounds and compositions were tested for their ability to dissolve blackheads as follows.
The blackheads were extracted from human volunteers using a comedone extracator. They were placed in a 24 or 96 well plate and submerged into approximately 100 microliters of each test material listed in Table 1 for 24 hours at room temperature ([…]). Gray color cards (GretagMacbeth ColorChecker™ Color Rendition Chart-Neutral 8 (0.23) CC20) were used underneath and measurements were made using a WILD M10 microscope at 40x, no agitation. The plates were covered with parafilm to avoid evaporation, and each test solution was removed at 24 hours and allowed to dry overnight. The amount of blackhead dissolved was graded by expert inspection on a scale from 1-7, 1 being not dissolved, and 7 being completely dissolved as shown in Table 1.
Consider `CCCCCCCCCCCCCC(=O)O` [10% Myristic acid in KOH, Myristic acid], for which the “Outcome at 24 hours (amount of blackhead dissolved, grade on scale 1-7)” value is 6.00 ± 0.01. With `[Na+].[OH-]` [0.1M NaOH, NaOH, reference compound] the figure was 4.33 ± 0.58; with `CCCCCCCC/C=C\CCCCCCCC(=O)O` [10% Oleic acid in KOH, Oleic acid], 7.00 ± 0.01.
